Here are results for 18 compounds from US5681964A, “Permeable, non-irritating prodrugs of nonsteroidal and steroidal agents” (University of Kentucky Research Foundation, priority 1994, dated 1997).

Converted amounts (≈) assume the structure as drawn. Like-named read-outs stand apart in the source and are kept apart here.

Series [1] can be described thus: t1/2 in PB (7.4) (Table 1). The class given is physicochemical. To be noted: for half-life: pH 7.4; for t1/2 in PB (7.4): result in words.
Series [2] is described as follows: Solubility (Table 1). The class given is physicochemical.
Series [3] can be described thus: t1/2 in serum (Table 1). The series is classed as in vitro ADME.
Series [4] has as its system rabbit eye. Briefly: irritancy in the rabbit eye, daily drops for seven days. The class given is in vivo. To be noted: for degree of irritation to the cornea as compared to flurbiprofen in the acid form: 25 microliters (monoester, flurbiprofen) or 30 microliters (diester) into each eye daily, seven days, slit lamp, electron microscopy; for conversion into the flurbiprofen acid form during transport into the eye: aqueous humor and vitreous humor after seven days. Here is the method: Another experiment was performed with tetraethylene glycol flurbiprofenate and tetraethylene glycol bis-flurbiprofenate to determine the irritancy of these prodrugs in the rabbit eye.
25 microliters of tetraethylene flurbiprofenate were dropped into each eye of two rabbits each day for seven days. Also, 30 microliters of tetraethylene glycol bis-flurbiprofenate was dropped into each eye of two rabbits each day for 7 days. A control using 25 microliters of flurbiprofen was dropped into each eye of two rabbits for seven days. Each morning the rabbit's eyes were examined by slit lamp for evidence of cornea damage and irritation. After seven days the animals were sacrificed and samples of the aqueous humor and vitreous humor were obtained for analysis of flurbiprofen and a flurbiprofen ester. The eyes were also examined by electron microscopy. […] The test was repeated using 10 microliters of each of the substances each day for seven days with similar results.

For series [5], the system named is cornea epithelium. Put plainly: differential scanning calorimetry of cornea epithelium of treated enucleated albino rabbit eyes. Here is the method: The reduced cornea damage by polyethylene glycol flurbiprofenate and bis-flurbiprofenate prodrugs in albino rabbit eyes was assessed by differential scanning calorimetry. Tests were conducted to investigate the effects of flurbiprofen and the polyethylene glycol flurbiprofen ester and the diester prodrugs on the cornea epithelium. […] The effects of these drugs on the molecular structure of the cornea epithelium were assessed by differential scanning calorimetry. Fresh enucleated albino rabbit eyes were treated in solutions and also in suspensions of flurbiprofen and also in solutions and suspensions of the polyethylene glycol esters and diesters of flurbiprofen in isotonic glutathione buffered ringer solution for 10 minutes. The cornea epithelium was then scraped from the corneas and immediately analyzed by differential scanning calorimetry over the range of 40°-110° C.
Whenever a normal rabbit's cornea epithelium was analyzed a large endothermic transition at 64°±2° C. was observed. It has been established by previous work that this particular peak which was observed was due to a lipid.backslash.protein phase transition.
(In general: DSC measures the heat that a sample takes up or gives off during a temperature scan.)

The conditions of series [6]: applied for treatment of inflammation; cited from earlier work.
The conditions of series [7]: man; cited from earlier work.
Series [8] relates to cornea. To be noted: in vitro; cited from earlier work.
For series [9] the following is noted: animal and human experiments; cited from earlier work.
Series [10] deals with skin. To be noted: cited from earlier work.
Series [11] concerns Salmonella. To be noted: Ames type assays and chronic exposure studies; cited from earlier work.
Where [12] appears, read: PB (7.4), read-out: t1/2 in PB (7.4) (converted).

As usually defined, the solubility is the concentration that dissolves in the medium under given conditions.

Turning to `CC(C(=O)OCCOCCOCCO)c1ccc(-c2ccccc2)c(F)c1` (stereo not drawn) [Compound G-60], the half-life is 175 h in [1] (setting [12]) and 0.75 h in [3] (read-out: t1/2 in serum). Also, in series [2] (read-out: Solubility), the solubility was 135 ± 4 µg/mL (≈ 359 µM).
With `COc1ccc2cc(C(C)C(=O)OCCOCCOCCOC(=O)C(C)c3ccc4cc(OC)ccc4c3)ccc2c1` (stereo not drawn) [Compound G-192.2], the “t1/2 in PB (7.4)” value in series [1] (PB (7.4)) is “low solubility”. The solubility in [2] (read-out: Solubility) is < 0.1 µg/mL. In series [3] (read-out: t1/2 in serum), the half-life was found to be 0.833 h.
For the compound `CC1(C)O[C@@H]2C[C@H]3[C@@H]4CCC5=CC(=O)C=C[C@]5(C)[C@@]4(F)[C@@H](O)C[C@]3(C)[C@]2(C(=O)COC(=O)OCCOCCOCCOCCO)O1` [Compound G-196.1, carbonate linked ester of triamcinolone acetonide and tetraethylene glycol], the half-life in [1] (pb) is 136 h; in [3], 3.8 h. This compound also showed a solubility in series [2] of 391 ± 49 µg/mL (≈ 597 µM).
As for `CC(C(=O)OCCOCCOCCOCCOCCOCCO)c1ccc(-c2ccccc2)c(F)c1` (stereo not drawn) [TC-242.2, hexaethylene glycol flurbiprofenate], the “t1/2 in PB (7.4)” value in [1] (PB (7.4)) was “several days”. Further, the solubility in series [2] (read-out: Solubility) worked out at 445 ± 34 µg/mL (≈ 875 µM). The half-life in [3] (read-out: t1/2 in serum) stood at 0.367 h.
As to `CC(C(=O)OCCOCCOCCOCCO)c1ccc(-c2ccccc2)c(F)c1` (stereo not drawn) [Compound G-202.1, tetraethylene glycol 2-(2-fluoro-4-biphenylyl)propionate], in series [4], the “degree of irritation to the cornea as compared to flurbiprofen in the acid form” value is listed as “significantly reduced” and the “conversion into the flurbiprofen acid form during transport into the eye” value is listed as “converted into the flurbiprofen acid form during transport into the eye”. For the same compound, the half-life in [1] (setting [12]) was 144 h. The solubility in series [2] (read-out: Solubility) was found to be 228 ± 5 µg/mL (≈ 542 µM). The half-life in [3] (read-out: t1/2 in serum) is 0.533 h.
Turning to `COc1ccc2cc(C(C)C(=O)OCCOCCO)ccc2c1` (stereo not drawn) [Compound G-195.1], the half-life in series [1] (setting [12]) was 80 h; in [3] (read-out: t1/2 in serum), 0.967 h. Besides, the solubility in series [2] (read-out: Solubility) came out at 553 ± 27 µg/mL (≈ 1740 µM).
The like results for `COc1ccc2cc(C(C)C(=O)OCCOCCOCCO)ccc2c1` (stereo not drawn) [Compound G-192.1] were, in that order, 230 h, 0.217 h and 943 ± 25 µg/mL (≈ 2600 µM).
`COc1ccc2cc(C(C)C(=O)OCCOCCOCCOCCOCCOCCO)ccc2c1` (stereo not drawn) [Compound G-220.1]: the “t1/2 in PB (7.4)” value in series [1] (PB (7.4)) is on record as “several days”. For the same compound, the solubility in series [2] (read-out: Solubility) came out at 6430 ± 617 µg/mL (≈ 13000 µM). The half-life in series [3] (read-out: t1/2 in serum) amounted to 0.0617 h.
The like results for `CC(C(=O)OCCOCCOCCOCCOCCOCCOC(=O)C(C)c1ccc(-c2ccccc2)c(F)c1)c1ccc(-c2ccccc2)c(F)c1` (stereo not drawn) [TC-242.1, hexaethylene glycol bis-flurbiprofenate] were, in that order, “very slow”, < 0.1 µg/mL and 2.78 h.
For the compound `CC1(C)O[C@@H]2C[C@H]3[C@@H]4CCC5=CC(=O)C=C[C@]5(C)[C@@]4(F)[C@@H](O)C[C@]3(C)[C@]2(C(=O)COC(=O)OCCOCCO)O1` [Compound G-197.1, carbonate linked ester of triamcinolone acetonide and diethylene glycol], the half-life in series [1] (pb) was 101 h; in [3], 0.167 h. Also, in [2], the concentration in solution (solubility) was 74 ± 3 µg/mL (≈ 131 µM).
Regarding benzalkonium chloride, the “intensity of the phase transition peak of cornea epithelium by DSC” value in [5] (compounds known to damage the cornea) is “greatly reduce the intensity of this observed peak”.
For `CC(C(=O)O)c1ccc(-c2ccccc2)c(F)c1` (stereo not drawn) [flurbiprofen, 2(2-fluoro-4-biphenylyl)propionic acid], in series [6], the local irritation result is reported as “produces local irritation”. The “normal protein/lipid structure of cornea epithelium” value in series [5] is recorded as “substantially total breakdown of the normal protein/lipid structure”. Further, the irritation entry in series [7] is recorded as “irritating in man”. Further, in series [8], the cornea barrier function result is recorded as “impairs cornea barrier function in vitro”.
Turning to `COc1ccc2cc(C(C)C(=O)OCCOCCOC(=O)C(C)c3ccc4cc(OC)ccc4c3)ccc2c1` (stereo not drawn) [Compound G-195.2, diester of naproxen and diethylene glycol], in series [1] (PB (7.4)), the “t1/2 in PB (7.4)” value is “low solubility”. Further, the solubility in series [2] (read-out: Solubility) is < 0.1 µg/mL. Further, in [3] (read-out: t1/2 in serum), the half-life came to 1.25 h.
As to `COc1ccc2cc(C(C)C(=O)OCCOCCOCCOCCOC(=O)C(C)c3ccc4cc(OC)ccc4c3)ccc2c1` (stereo not drawn) [Compound G-219.2, diester of naproxen and tetraethylene glycol], the “t1/2 in PB (7.4)” value in series [1] (PB (7.4)) is recorded as “very slow”. Moreover, the solubility in series [2] (read-out: Solubility) is < 0.1 µg/mL. Moreover, the half-life in series [3] (read-out: t1/2 in serum) is 0.433 h.
In the case of `COc1ccc2cc(C(C)C(=O)OCCOCCOCCOCCOCCOCCOC(=O)C(C)c3ccc4cc(OC)ccc4c3)ccc2c1` (stereo not drawn) [Compound G-220.2, diester of naproxen and hexaethylene glycol], the “t1/2 in PB (7.4)” value in series [1] (PB (7.4)) is “very slow”. Also, the solubility in series [2] (read-out: Solubility) was < 0.1 µg/mL. Further, in [3] (read-out: t1/2 in serum), the half-life was 0.833 h.
In the case of `CC(C(=O)OCCOCCOCCOCCOC(=O)C(C)c1ccc(-c2ccccc2)c(F)c1)c1ccc(-c2ccccc2)c(F)c1` (stereo not drawn) [Compound G-202.2, tetraethylene glycol bis-2-(2-fluoro-4-biphenylyl)propionate], in series [4], the “degree of irritation to the cornea as compared to flurbiprofen in the acid form” value is reported as “significantly reduced” and the “conversion into the flurbiprofen acid form during transport into the eye” value is listed as “converted into the flurbiprofen acid form during transport into the eye”. Besides, the “t1/2 in PB (7.4)” value in series [1] (PB (7.4)) is recorded as “low solubility”. The solubility in series [2] (read-out: Solubility) is < 0.1 µg/mL. Moreover, the half-life in series [3] (read-out: t1/2 in serum) stood at 3.67 h.
Regarding `COc1ccc2cc(C(C)C(=O)OCCOCCOCCOCCO)ccc2c1` (stereo not drawn) [Compound G-167, monoester of naproxen and tetraethylene glycol], the results for the half-life in series [1] (setting [12]) and in [3] (read-out: t1/2 in serum) were 300 h and 0.0833 h, respectively. Besides, the solubility in series [2] (read-out: Solubility) is 1120 ± 31 µg/mL (≈ 2740 µM).
`CN1CCCC1=O` [N-methyl-2-pyrrolidone]: in series [9], the “irritation or sensitization potential” value was “very little irritation or sensitization potential”. Further, the penetration enhancement result in [10] was “effective penetration enhancer”. The toxicity entry in [11] is given as “have not revealed any significant toxicity”.
